The text below walks through data of patent US20240277730A1, “SUPPRESSION OF COVID-19 REPLICATION BY COVID-19 ENTRY INHIBITORS” (Board of Regents of the University of Nebraska, priority 2021, published 2024).

The structures appear in SMILES notation.

For orientation: IC50 means the midpoint of a concentration-inhibition curve.

In assay [1] the test system is SARS-COV-2 South Africa variant (linage: B.1.351). In words: microbe, parasite or virus in culture. The assay is classed as cell-based. Particulars: Severe acute respiratory syndrome coronavirus 2, Calu-3; read-out: IC50, South African (B.1.351) variant.
Assay [2] has as its system SARS-COV-2 Scotland variant (linage: B.1.222). As to the kind of experiment: microbe, parasite or virus in culture. To be noted: Severe acute respiratory syndrome coronavirus 2, Calu-3. The assay is classed as cell-based.

With `O=C1Nc2cc(C(F)(F)F)ccc2Oc2ccsc21` [formula (IIa), 7-(trifluoromethyl)benzo[b]-thieno[2,3-f][1,4]oxazepin-10(9H)-one], the IC50 in assay [1] was 3 µM; in assay [2] it was 1.39 µM.

Regarding `CN1C(=O)c2ccccc2[S+]([O-])c2cc([N+](=O)[O-])ccc2S1(=O)=O` (stereo not shown) [formula (Ia), 6-methyl-2-nitrodibenzo[d,g]-[1,6,2]dithiazocin-7(6H)-one 5,5, 12-trioxide], the IC50 amounted to 9.27 µM in assay [1] and 2.64 µM in assay [2].
